How the values were obtained:
U373 cells = assay: Trypan blue viability assay, U373; format: cell-based, human; settings: 72 h treatment
Procedure: FIG. 9. Viability of U373 cells by trypan blue staining. U373 cells were treated for 72 h with 1 or 13 and stained with trypan blue. The experiment was conducted once in triplicate. After having taken pictures, cells were fixed with ice-cold methanol and again stained with trypan blue as internal positive control.
To confirm the results obtained in the videomicroscopy experiments, trypan blue assay was employed to detect necrotic and late apoptotic cells that had lost their plasma membrane integrity (FIG. 9). […] These observations support the results of the MTT assay and provide an explanation for the effectiveness of the C12-Wittig derivatives against cells, which display resistance to apoptosis induction. In contrast, at the concentrations necessary to induce cancer cell death 1 behaves as a toxic fixative compound of little promise as a potential drug.

Cal27-derived tumors = assay: Mouse xenograft model, Cal27; format: in vivo, athymic nude mice
Procedure: Six-week old female athymic nude mice were used in laminar air-flow cabinet in pathogen-free conditions. They were acclimated for one week prior to the start of the study and kept at controlled temperature and humidity, with food and water. Mice were injected subcutaneously in the flank with 2×10^6 Cal27 cells or HeLa cells in 0.1 mL of sterile PBS. When the tumors reached 100 mm^3 (Cal27) and 150 mm^3 (HeLa), the mice were stratified into 4 groups, […], polygodial, P10, P3 and P27 at the concentrations noted in the figure legends.

HSC3 cells = assay: Morphological changes, HSC3; format: cell-based, human; settings: P3 50 μM, 1 hour
Procedure: FIGS. 12A-B Morphological changes (20×) in HeLa cells (FIG. 12Aa-d) and HSC3 cells (FIG. 12Ba-d) with no treatment (a) or treated with Polygodial 80 μM (b), P10 4 μM (c), and P3 50 μM (d) for 1 hour. Differences in morphological changes between treatments indicate potentially unique mechanisms-of-action between polygodial and P10 (isomer), and P3 (novel analog).

[1] = tested on: uterine sarcoma MES-SA cells; assay: MTT antiproliferative assay, MES-SA; format: cell-based, human; settings: 48 h treatment, relative to DMSO control, read-out: GI50 in vitro values, MES-SA
Procedure: (§1) Human mammary carcinoma MCF-7 (ATCC HTB22) cells were cultured in RPMI supplemented with 10% FBS. The U87 cells (ATCC HTB-14) were cultured in DMEM culture medium, while the A549 cells (DSMZ ACC107) were cultured in RPMI culture medium supplemented with 10% heat-inactivated FBS. The GBM Hs683 (ATCC HTB-138) cells were cultivated in DMEM supplemented with 10% FBS. The human uterine sarcoma MES-SA (ATCC CRL1966) and MES-SA/D×5 cells were cultured in RPMI-1640 medium supplemented with 10% FBS with MES SA/D×5 maintained in the presence of 500 nM Doxorubicin (Sigma). SKMEL-28 cells (ATCC HTB72) and U373 GBM cells (ECACC 08061901) were cultured in RPMI culture medium supplemented with 10% heat-inactivated FBS. Cell culture media were supplemented with 4 mM glutamine (Lonza code BE17-605E), 100 μg/mL gentamicin (Lonza code 17-5182), and penicillin-streptomycin (200 units/ml and 200 μg/ml) (Lonza code 17-602E). The MDA-MB-231 (ATCC HTB-26) epithelial mammary adenocarcinoma cells were cultured in Eagle's minimum essential medium (EMEM; Invitrogen) containing 5% fetal calf serum (FCS, Cambrex), 2 mM L-glutamine (Invitrogen), 0.06% HEPES (Invitrogen) and penicillin (50 IU/ml)/streptomycin (50 µg/ml; Invitrogen) at 37° C. in a humidified atmosphere of 5% CO2 in air. Transformed mouse NPCs were cultured in suspension under neurosphere conditions at 37° C. in a humidified atmosphere of […] and 5% CO2 in DMEM F12 (Invitrogen 11320-074) supplemented with 1×B27 supplement (Invitrogen 17504-044), 5% penicillin-streptomycin (Biochrom 10378-017), 10 ng/ml EGF (R&D systems 236-EG), 10 ng/ml FGF (PeproTech 100-18B).
Antiproliferative properties of the synthesized compounds were evaluated by the MTT assay. All compounds were dissolved in DMSO at a concentration of either 100 μM or 50 μM prior to cell treatment. The cells were trypsinized and seeded at various cell concentrations depending on the cell type. […]

[2] = tested on: MDR uterine sarcoma cell line MES-SA/Dx5; assay: MTT antiproliferative assay, MDR MES-SA/Dx5; format: cell-based, human
Procedure: as §1
Antiproliferative properties of the synthesized compounds were evaluated by the MTT assay. All compounds were dissolved in DMSO at a concentration of either 100 μM or 50 μM prior to cell treatment. The cells were trypsinized and seeded at various cell concentrations depending on the cell type. The cells were grown for 24 h to 72 h, treated with compounds at concentrations ranging from 0.001 to 100 μM and incubated for 48 or 72 h in 100 or 200 μL media depending on the cell line used. The number of experiments and replicates varied depending on the cell line. Cells treated with 0.1% DMSO were used as a negative control; 1 μM PAO was used as a positive control.
Selection of the MES-SA/D×5 cell line was done according to Harker et al. (Harker & Sikic, 1985). The cells were split and allowed to adhere overnight. The next day cells were initially exposed to doxorubicin (DOX) at the concentration of 100 nM, which represented the GI50 concentration. The cells were maintained at this DOX concentration until their growth rate reached that of the untreated cells. The DOX concentration was then increased in two-fold increments following the same growth criteria at each concentration to a final DOX concentration of 500 nM. Each new DOX concentration required approximately 2 passages to reach the growth rate of the untreated cells.
Often, tumors initially respond to chemotherapy but eventually become refractory to the continuing treatment. Such acquired resistance commonly occurs through the development of a multi-drug resistant phenotype (MDR) (Gottesman et al., 2002 and Saraswathy & Gong, 2013) affecting many common chemotherapeutic agents, including the vinca alkaloids (Chen et al., 2000) and taxanes (Geney et al., 2002). In addition, the development of apoptosis resistance and MDR mechanisms is often related and concurrent (Ruefli et al., 2002 and Johnstone et al., 1999), and thus it was of interest to evaluate 5 against MDR cells. Towards this end, the MDR uterine sarcoma cell line MES-SA/D×5, established by growing the parent uterine sarcoma MES-SA in the presence of increasing concentrations of doxorubicin and resistant to multiple functionally and structurally unrelated molecules (Harker & Sikic, 1985), was utilized.

Compound: CC1(C)CCC[C@]2(C)[C@@H](C=O)C(C=O)=CC[C@@H]12 [Compound 1, Polygodial]
- viability by trypan blue staining (U373 cells): all blue-stained before methanol fixation
- anti-tumor effect, Cal27-derived tumors (Cal27-derived tumors; 40 μg/100 μl intra-tumor injection every other day for 18 days, no significant difference between polygodial and P27): significant anti-tumor effects
- inflammatory response, Cal27 xenograft mice (Cal27-derived tumors; days 2-4, intra-tumor injection): notable inflammatory response

Compound: COC(=O)/C=C/C1=CC[C@H]2C(C)(C)CCC[C@]2(C)[C@H]1C=O [Compound 5]
- morphological changes, HSC3 (HSC3 cells): apoptotic figures
- GI50 [1]: 40 µM
- change of potency against MES-SA/Dx5 MDR cell line as compared with parent MES-SA cells ([2]; 48 h MTT): little variation in the sensitivities of the two cell lines
- GI50 ([2]; 48 h treatment, MTT assay, relative to DMSO control, read-out: GI50 in vitro values, MES-SA/Dx5): 45 µM

Reference: patent US20180237362A1, “NOVEL POLYGODIAL ANALOGS FOR THE TREATMENT OF CANCER AND OTHER PROLIFERATIVE DISEASES” (THE BOARD OF REGENTS OF THE UNIVERSITY OF TAXAS SYSTEM, priority 2015, published 2018)
